# According to patent US8841310B2, “Combinations of a pyrimidine containing NNRTI with RT inhibitors” (Janssen R & D Ireland, priority 2003, dated 2014):
# “And” between values parts separate entries of the source, which are not always exact repeats. Equal entries are not always repeated. Where two headings read alike, the source gives them in different places.
# Assays:
# [1] = test system: HIV-1 wild type; experiment: MT-4 cell-based antiviral assay (viral cytopathicity, tetrazolium); conditions: Human immunodeficiency virus 1, MT4, wild type virus
# Description: Compound E-TMC278 was tested in a cell-based assay, using natural host cells of HIV. MT-4 cells (a cell line of human T cells) were infected with HIV-1 (wild type or mutants) and exposed to different concentrations of antiviral compound in the presence of 10% fetal calf serum. Cytotoxicity was determined in parallel with the antiviral activity so that the selectivity of the antiviral effect could be assessed. Active compounds have to penetrate the cell membrane in order to interfere with replication steps inside the cell.
# After four days of incubation at 37° C., the viability of the HIV and mock-infected cells was assessed by an automated tetrazolium-based calorimetric assay. This method enabled the calculation of both the 50% inhibitory concentration for inhibition of viral cytopathicity (IC50), the IC90, and the 50% cytotoxic concentration (CC50). The ratio CC50/IC50, also called the selectivity index, is an indication of the specificity of the antiviral effect. Tested HIV strains included: Wild type (wt) HIV-1; a panel of single and double mutants, obtained by site-directed mutagenesis (SDM), and a panel of clinical isolates, selected for resistance against NNRTIs.
# [2] = Phase I single oral dose trials: safety, tolerability, pharmacokinetics; type: in vivo, human; conditions: for Cmax / half-life / Tmax: human, plasma; for half-life / Tmax: male
# Description: Oral doses of 12.5, 25, and 50 mg were formulated in PEG 400 and taken with a standard meal.
# There was a time interval of about 14 days between each dosing session
# [3] = test system: wild type HIV-1; experiment: Development of resistance in vitro, MT4 cells, high multiplicity of infection; type: cell-based; conditions: wild type HIV-1, >1 infectious virus per cell, all tested concentrations, total 30 days
# Source text: (§1) Emerging virus was collected for pheno- and genotyping. Cultures without evidence of virus replication were further sub-cultivated in the presence of the same concentration of inhibitor for a total duration of 30 days (10 passages).
# [4] = test system: HIV-1 double resistant mutant K103N+Y181C; experiment: Development of resistance in vitro, starting from double mutant; type: cell-based
# Source text: as §1
# [5] = Cardiovascular and pulmonary safety in vivo; conditions: plasma levels covering and exceeding the targeted plasma levels in man
# [6] = Cardiovascular and pulmonary safety in vitro; conditions: concentrations covering or exceeding the anti-viral concentration in vitro
# [7] = single oral doses, healthy volunteers
smiles,measurement,setting,value
"Cc1cc(/C=C/C#N)cc(C)c1Nc1ccnc(Nc2ccc(C#N)cc2)n1 [E-TMC278, (E)-4-[[4-[[4-(2-cyanoethenyl)-2,6-dimethylphenyl]-amino]-2-pyrimidinyl]-amino]-benzonitrile]",IC90,[1],1.3 nM and 0.00048 µg/mL
same,IC50,[1]; read-out: IC50,0.15 ng/mL
same,correlation coefficient for AUC0-48 hr (dose proportionality),[2]; 12.5-200 mg,0.9952
same,correlation coefficient for the 5 Cmax datapoints (dose proportionality),[2]; 12.5-200 mg,0.9897
same,Cmax,"[2]; single oral dose 25 mg in PEG 400 with standard meal, healthy male volunteers",149 ± 32 ng/mL
same,Cmax,"[2]; single oral dose 50 mg in PEG 400 with standard meal, healthy male volunteers",267 ± 27 ng/mL
same,Cmax,"[2]; single oral dose 100 mg, healthy male subjects",482 ± 121 ng/mL
same,Cmax,"[2]; single oral dose 200 mg, healthy male subjects",807 ± 207 ng/mL
same,half-life,"[2]; across single oral doses, read-out: Half-life of plasma concentrations",37 to 39 h
same,Tmax,[2]; single oral dose 12.5 mg,4 h
same,half-life,"[2]; single oral dose 12.5 mg, read-out: T1/2 (converted)",37.1 h
same,Tmax,[2]; single oral dose 25 mg,4 ± 1.3 h
same,half-life,"[2]; single oral dose 25 mg, read-out: T1/2 (converted)",38.7 h
same,Tmax,[2]; single oral dose 50 mg,4 ± 1.3 h
same,half-life,"[2]; single oral dose 50 mg, read-out: T1/2 (converted)",45 ± 9 h
same,Tmax,[2]; single oral dose 100 mg,4.3 ± 0.8 h
same,half-life,"[2]; single oral dose 100 mg, read-out: T1/2 (converted)",55 ± 18 h
same,Tmax,[2]; single oral dose 200 mg,4.3 ± 0.8 h
same,Adverse effects,[2]; [7],No relevant adverse effects
same,Tolerability,[2]; [7],well tolerated
same,time to emergence of resistant virus,[3],> 30 days
same,emergence of resistance,[4],resistance did emerge at all tested concentrations
same,effect on cardiovascular and pulmonary parameters in vivo,[5],little or no effect
same,effect on cardiovascular and pulmonary parameters in vitro,[6],little or no effect
